PubChem BioAssay AID1745844 (Carcinogenic Potency Database (CPDB), 2022)
“And” between values parts separate entries of the source, which are not always exact repeats. Equal values may be shown once. The source made the active and inactive calls. How the calls were made is not given here.

Tested on: rodent lifetime carcinogenesis bioassay, tumor incidence TD50
Test: carcinogenic potency in animals, long-term in vivo studies, CPDB compilation (AID 1745844)

Q: Which results are given for `c1cc(OCC2CO2)cc(OCC2CO2)c1` (configuration not stated)?
A: TD50 (mouse, strain B6C3F1, females, by gavage, site: any site (literature study), lesion: several types, types named in the paper, dosed 103 weeks, study length 105 weeks): 32.3 mg/kg/day; TD50 (mouse, strain B6C3F1, females, by gavage, site: liver, lesion: hepatocellular adenoma + hepatocellular carcinoma + neoplastic nodule, dosed 103 weeks, study length 105 weeks): 169 mg/kg/day; TD50 (mouse, strain B6C3F1, females, by gavage, site: liver, lesion: hepatocellular carcinoma, dosed 103 weeks, study length 105 weeks): 221 mg/kg/day; TD50 (mouse, strain B6C3F1, females, by gavage, site: lung, lesion: alveolar/bronchiolar adenoma + alveolar/bronchiolar carcinoma, dosed 103 weeks, study length 105 weeks): 4790 mg/kg/day; TD50 (mouse, strain B6C3F1, females, by gavage, site: stomach, lesion: papillomatosis + squamous-cell carcinoma + squamous-cell papilloma, dosed 103 weeks, study length 105 weeks): 17.9 mg/kg/day; TD50 (mouse, strain B6C3F1, females, by gavage, site: stomach, lesion: papillomatosis + squamous-cell papilloma, dosed 103 weeks, study length 105 weeks): 48.2 mg/kg/day; TD50 (mouse, strain B6C3F1, females, by gavage, site: stomach, lesion: squamous-cell carcinoma, dosed 103 weeks, study length 105 weeks): 36.3 mg/kg/day; TD50 (mouse, strain B6C3F1, males, by gavage, site: any site (literature study), lesion: several types, types named in the paper, dosed 103 weeks, study length 104 weeks): 36.6 mg/kg/day; TD50 (mouse, strain B6C3F1, males, by gavage, site: liver, lesion: hepatocellular adenoma + hepatocellular carcinoma + neoplastic nodule, dosed 103 weeks, study length 104 weeks): 84.7 mg/kg/day; TD50 (mouse, strain B6C3F1, males, by gavage, site: lung, lesion: alveolar/bronchiolar adenoma + alveolar/bronchiolar carcinoma, dosed 103 weeks, study length 104 weeks): 1350 mg/kg/day; TD50 (mouse, strain B6C3F1, males, by gavage, site: stomach, lesion: papillomatosis + squamous-cell carcinoma + squamous-cell papilloma, dosed 103 weeks, study length 104 weeks): 37.8 mg/kg/day; TD50 (mouse, strain B6C3F1, males, by gavage, site: stomach, lesion: papillomatosis + squamous-cell papilloma, dosed 103 weeks, study length 104 weeks): 145 mg/kg/day; TD50 (mouse, strain B6C3F1, males, by gavage, site: stomach, lesion: squamous-cell carcinoma, dosed 103 weeks, study length 104 weeks): 55.5 mg/kg/day; TD50 (rat, strain Fischer 344, females, by gavage, site: any site (literature study), lesion: several types, types named in the paper, dosed 103 weeks, study length 104 weeks): 8.53 mg/kg/day and 16 mg/kg/day; TD50 (rat, strain Fischer 344, females, by gavage, site: forestomach, lesion: squamous-cell carcinoma + squamous-cell papilloma, dosed 103 weeks, study length 104 weeks): 3.53 mg/kg/day; TD50 (rat, strain Fischer 344, females, by gavage, site: forestomach, lesion: squamous-cell carcinoma, dosed 103 weeks, study length 104 weeks): 5.93 mg/kg/day; TD50 (rat, strain Fischer 344, females, by gavage, site: forestomach, lesion: squamous-cell papilloma, dosed 103 weeks, study length 104 weeks): 8.95 mg/kg/day; TD50 (rat, strain Fischer 344, females, by gavage, site: liver, lesion: hepatocellular adenoma + hepatocellular carcinoma + neoplastic nodule, dosed 103 weeks, study length 104 weeks): 174 mg/kg/day; TD50 (rat, strain Fischer 344, females, by gavage, site: stomach, lesion: squamous-cell carcinoma + squamous-cell papilloma, dosed 103 weeks, study length 104 weeks): 4.47 mg/kg/day; TD50 (rat, strain Fischer 344, females, by gavage, site: stomach, lesion: squamous-cell carcinoma, dosed 103 weeks, study length 104 weeks): 5.1 mg/kg/day; TD50 (rat, strain Fischer 344, females, by gavage, site: stomach, lesion: squamous-cell papilloma, dosed 103 weeks, study length 104 weeks): 45.5 mg/kg/day; TD50 (rat, strain Fischer 344, males, by gavage, site: any site (literature study), lesion: several types, types named in the paper, dosed 98 weeks, study length 104 weeks): 2.43 mg/kg/day; TD50 (rat, strain Fischer 344, males, by gavage, site: any site (literature study), lesion: several types, types named in the paper, dosed 103 weeks, study length 104 weeks): 4.61 mg/kg/day; TD50 (rat, strain Fischer 344, males, by gavage, site: forestomach, lesion: squamous-cell carcinoma + squamous-cell papilloma, dosed 103 weeks, study length 104 weeks): 2.33 mg/kg/day; TD50 (rat, strain Fischer 344, males, by gavage, site: forestomach, lesion: squamous-cell carcinoma, dosed 103 weeks, study length 104 weeks): 2.73 mg/kg/day; TD50 (rat, strain Fischer 344, males, by gavage, site: forestomach, lesion: squamous-cell papilloma, dosed 103 weeks, study length 104 weeks): 8.16 mg/kg/day; TD50 (rat, strain Fischer 344, males, by gavage, site: liver, lesion: hepatocellular adenoma + hepatocellular carcinoma + neoplastic nodule, dosed 98 weeks, study length 104 weeks): 114 mg/kg/day; TD50 (rat, strain Fischer 344, males, by gavage, site: liver, lesion: hepatocellular adenoma + hepatocellular carcinoma + neoplastic nodule, dosed 103 weeks, study length 104 weeks): 640 mg/kg/day; TD50 (rat, strain Fischer 344, males, by gavage, site: pituitary gland, lesion: adenoma, NOS, dosed 98 weeks, study length 104 weeks): 12.2 mg/kg/day; TD50 (rat, strain Fischer 344, males, by gavage, site: stomach, lesion: squamous-cell carcinoma + squamous-cell papilloma, dosed 98 weeks, study length 104 weeks): 2.89 mg/kg/day; TD50 (rat, strain Fischer 344, males, by gavage, site: stomach, lesion: squamous-cell carcinoma, dosed 98 weeks, study length 104 weeks): 3.06 mg/kg/day; TD50 (rat, strain Fischer 344, males, by gavage, site: stomach, lesion: squamous-cell papilloma, dosed 98 weeks, study length 104 weeks): 24.7 mg/kg/day; TD50 (rat, strain Fischer 344, males, by gavage, site: testis, lesion: interstitial-cell tumor, dosed 98 weeks, study length 104 weeks): 2.35 mg/kg/day

Q: With `O=NN1C[C@H](O)C[C@H]1C(=O)O` as the compound, how does the TD50 (rat, strain MRC, females, in drinking water, site: any site (literature study), lesion: several types, types named in the paper, dosed 75 weeks, study length 104 weeks) read?
A: Its TD50 is 3.84 mg/kg/day (inactive).

Q: What about the carcinogen call (rat, strain MRC, males, in drinking water, site: any site (literature study), lesion: several types, types named in the paper, dosed 75 weeks, study length 104 weeks) of the same compound?
A: The carcinogen call was “negative (inactive)”.

Q: For `CC(C)(C)c1cc(C(C)(C)C)c(O)c(C(C)(C)C)c1`, which carcinogen call (rat, strain Wistar, females, in feed, site: liver, lesion: one or several types, types not named, dosed 52 weeks, study length 52 weeks) is on record?
A: Its carcinogen call is “negative (inactive)”.

Q: And the carcinogen call (rat, strain Wistar, females, in feed, site: liver, lesion: one or several types, types not named, dosed 78 weeks, study length 78 weeks)?
A: Its carcinogen call is “negative (inactive)”.

Q: And the carcinogen call (rat, strain Wistar, females, in feed, site: liver, lesion: one or several types, types not named, dosed 104 weeks, study length 104 weeks)?
A: The carcinogen call was “negative (inactive)”.

Q: And the carcinogen call (rat, strain Wistar, males, in feed, site: liver, lesion: one or several types, types not named, dosed 52 weeks, study length 52 weeks)?
A: The carcinogen call was “negative (inactive)”.

Q: What about the carcinogen call (rat, strain Wistar, males, in feed, site: liver, lesion: one or several types, types not named, dosed 78 weeks, study length 78 weeks) of the same compound?
A: Its carcinogen call is “negative (inactive)”.

Q: What about the carcinogen call (rat, strain Wistar, males, in feed, site: liver, lesion: one or several types, types not named, dosed 104 weeks, study length 104 weeks) of the same compound?
A: The carcinogen call was “negative (inactive)”.

Q: What does the source list for `CN1C(C(=O)Nc2ccccn2)=C(O)c2sc(Cl)cc2S1(=O)=O`?
A: carcinogen call (rat, strain Sprague-Dawley, females, by gavage, site: any site (literature study), lesion: several types, types named in the paper, dosed 104 weeks, study length 104 weeks): negative (inactive); carcinogen call (rat, strain Sprague-Dawley, females, by gavage, site: kidney, lesion: one or several types, types not named, dosed 52 weeks, study length 52 weeks): negative (inactive); TD50 (rat, strain Sprague-Dawley, females, by gavage, site: liver, lesion: hepatocellular adenoma, dosed 104 weeks, study length 104 weeks): 13.2 mg/kg/day (inactive); carcinogen call (rat, strain Sprague-Dawley, males, by gavage, site: any site (literature study), lesion: several types, types named in the paper, dosed 104 weeks, study length 104 weeks): negative (inactive); carcinogen call (rat, strain Sprague-Dawley, males, by gavage, site: kidney, lesion: one or several types, types not named, dosed 52 weeks, study length 52 weeks): negative (inactive); carcinogen call (rat, strain Sprague-Dawley, males, by gavage, site: liver, lesion: several types, types named in the paper, dosed 104 weeks, study length 104 weeks): negative (inactive)
